This test addresses NAD-dependent protein deacetylase HST2 (Saccharomyces cerevisiae S288c, UniProt P53686). Briefly: Binding affinity to Saccharomyces cerevisiae Hst2 by isothermal titration calorimetry.

We go through 8 compounds from ChEMBL document CHEMBL1156528, “Acetyl-lysine analog peptides as mechanistic probes of protein deacetylases” (J Biol Chem, 2007).

SMILES strings stand for the structures. pKd: −log10 of the molar value.

Chain of NAD-dependent protein deacetylase HST2 (P53686 whole entry): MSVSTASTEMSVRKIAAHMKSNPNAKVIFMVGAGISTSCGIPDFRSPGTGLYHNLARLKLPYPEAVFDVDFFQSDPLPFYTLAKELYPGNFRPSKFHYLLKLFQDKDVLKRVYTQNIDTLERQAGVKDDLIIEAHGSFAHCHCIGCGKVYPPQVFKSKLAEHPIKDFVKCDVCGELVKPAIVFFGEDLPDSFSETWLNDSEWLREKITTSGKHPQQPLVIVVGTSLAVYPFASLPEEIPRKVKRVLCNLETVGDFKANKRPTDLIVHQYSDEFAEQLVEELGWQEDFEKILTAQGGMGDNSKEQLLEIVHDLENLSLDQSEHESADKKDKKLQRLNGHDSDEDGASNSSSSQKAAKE

The compound `CC(=N)NCCCC[C@H](NC(=O)CNC(=O)CNC(=O)[C@@H](NC(=O)[C@H](CO)NC(=O)[C@@H](N)CCCCN)[C@@H](C)O)C(=O)N[C@@H](C)C(=O)N1CCC[C@H]1C(=O)N[C@@H](CCCN=C(N)N)C(=O)N[C@@H](CCCCN)C(=O)N[C@@H](CCC(N)=O)C(=O)O` had a pKd of 5.48. For `C[C@H](NC(=O)[C@H](CCCCNC(=N)N)NC(=O)CNC(=O)CNC(=O)[C@@H](NC(=O)[C@H](CO)NC(=O)[C@@H](N)CCCCN)[C@@H](C)O)C(=O)N1CCC[C@H]1C(=O)N[C@@H](CCCNC(=N)N)C(=O)N[C@@H](CCCCN)C(=O)N[C@@H](CCC(N)=O)C(=O)O` the value was 5.48; for `C[C@H](NC(=O)[C@H](CCCCNC(=O)CO)NC(=O)CNC(=O)CNC(=O)[C@@H](NC(=O)[C@H](CO)NC(=O)[C@@H](N)CCCCN)[C@@H](C)O)C(=O)N1CCC[C@H]1C(=O)N[C@@H](CCCNC(=N)N)C(=O)N[C@@H](CCCCN)C(=O)N[C@@H](CCC(N)=O)C(=O)O`, 5.48; for `C[C@H](NC(=O)[C@H](CCCCNC(N)=O)NC(=O)CNC(=O)CNC(=O)[C@@H](NC(=O)[C@H](CO)NC(=O)[C@@H](N)CCCCN)[C@@H](C)O)C(=O)N1CCC[C@H]1C(=O)N[C@@H](CCCN=C(N)N)C(=O)N[C@@H](CCCCN)C(=O)N[C@@H](CCC(N)=O)C(=O)O`, 5.48. The value for `CC(=S)NCCCC[C@H](NC(=O)CNC(=O)CNC(=O)[C@@H](NC(=O)[C@H](CO)NC(=O)[C@@H](N)CCCCN)[C@@H](C)O)C(=O)N[C@@H](C)C(=O)N1CCC[C@H]1C(=O)N[C@@H](CCCNC(=N)N)C(=O)N[C@@H](CCCCN)C(=O)N[C@@H](CCC(N)=O)C(=O)O` was 5.48. The value for `CCCC(=O)NCCCC[C@H](NC(=O)CNC(=O)CNC(=O)[C@@H](NC(=O)[C@H](CO)NC(=O)[C@@H](N)CCCCN)[C@@H](C)O)C(=O)N[C@@H](C)C(=O)N1CCC[C@H]1C(=O)N[C@@H](CCCN=C(N)N)C(=O)N[C@@H](CCCCN)C(=O)N[C@@H](CCC(N)=O)C(=O)O` was 4.80; that for `C[C@H](NC(=O)[C@H](CCCCNC(=O)CF)NC(=O)CNC(=O)CNC(=O)[C@@H](NC(=O)[C@H](CO)NC(=O)[C@@H](N)CCCCN)[C@@H](C)O)C(=O)N1CCC[C@H]1C(=O)N[C@@H](CCCNC(=N)N)C(=O)N[C@@H](CCCCN)C(=O)N[C@@H](CCC(N)=O)C(=O)O` was 5.48; that for `C[C@H](NC(=O)[C@H](CCCCNC(=O)C(F)F)NC(=O)CNC(=O)CNC(=O)[C@@H](NC(=O)[C@H](CO)NC(=O)[C@@H](N)CCCCN)[C@@H](C)O)C(=O)N1CCC[C@H]1C(=O)N[C@@H](CCCN=C(N)N)C(=O)N[C@@H](CCCCN)C(=O)N[C@@H](CCC(N)=O)C(=O)O` was 5.48.
